{"source": "patent US12440479B2", "about": "“Prevention or treatment of chronic organ injury” (GEORG-AUGUST-UNIVERSITAET GOETTINGEN, STIFTUNG …, priority 2018, dated 2025)", "key": {"parenchymal organs": {"test_system": "parenchymal organs", "settings": "LB-100 2 mg/kg in combination with FK506 0.2 mg/kg s.c. or GPI-1046 10 mg/kg s.c.", "protocol": "Mice were injected intraperitoneally with 2 mg/kg body weight LB-100 (LDN, Sigma, St. Louis, USA) every alternate day starting at the day of surgery, control mice received equivalent volume of vehicle buffer."}, "ARNT/HIF1β homodimer": {"test_system": "ARNT/HIF1β homodimer", "assay": "ARNT/HIF1β homodimer formation upon PP1/PP2A inhibition", "settings": "for ARNT/HIF1β homodimer formation: Okadaic acid: PP1/PP2A inhibition, Tautomycin: PP1, LB-100: PP2A", "from_the_text": "Based on previous reports that combined inhibition of PP1/PP2A with Okadaic acid is capable to induce ARNT/HIF1β homodimer formation and transactivation activity by directly blocking ARNT dephosphorylation (163), the inventors first confirmed enhanced […] homodimer formation upon PP1/PP2A inhibition (FIG. 57A). […] See also FIG. 58."}, "FKBP12, YY1, ARNT": {"test_system": "FKBP12, YY1, ARNT", "assay": "In vivo-morpholino knockdown: intrarenal protein levels (immunostaining, immunoblotting)", "settings": "UUO mice, VMO 12.5 mg/kg intraperitoneally, vs control-VMO", "procedure": "Mice were injected intraperitoneally with 12.5 mg/kg body weight in vivo-morpholinos (Gene Tools, Philomath, USA) in saline at a final volume of 100 μL every other day starting two days prior of surgery (114), sequence alignments were performed using NCBI Nucleotide Blast and are listed in Tables 3-5 (157). A control in vivo-morpholino that targets a human β-globin intron mutation was used as standard control (116).\n(§1) For immunofluorescent staining, primary antibodies against ARNT (5537S, Cell Signaling, Danvers, USA), Hif1α (H6535, Sigma, St. Louis, USA), Hif2α (ab20654, Abcam Biochemicals, Cambridge, UK), phosphorylated Smad1/5/8 (pSmad1/5/8, sc-12353, Santa Cruz Biotechnology, Dallas, USA), CD45 (550539, BD Biosciences, Franklin Lakes, USA), Collagen-1 (ab34710, Abcam Biochemicals, Cambridge, UK), α-smooth muscle actin (aSMA, A5228, Sigma, St. Louis, USA), FKBP12 (ab2918, Abcam Biochemicals, Cambridge, UK) and YY1 (ab12132, Abcam Biochemicals, Cambridge, UK) were used, secondary antibodies were labeled with Alexa Fluor 488 or 568 (Life Technologies, Carlsbad, USA). Renal basement membranes were stained with antibodies against Collagen-4 (1340-30, SouthernBiotech, Birmingham, USA), cardiac cell membranes with antibodies against WGA (W11261, Life Technologies, Carlsbad, USA). Nuclear staining was performed using 4′,6-diamidino-2-phenylindole (DAPI, Vector Laboratories, Burlingame, USA). Relative areas positive for Collagen-1, aSMA, tubular nuclei positive for ARNT and pSmad1/5/8 were quantified in 10 high power fields per section at 400× magnification.\nTissue and cells were homogenized in NP40 lysis buffer (Life technologies, Carlsbad, USA) supplemented with protease inhibitor cocktail (Roche, Basel, Switzerland). […] Luminescence was detected by using chemiluminescent substrate (Cell Signaling, Danvers, USA) on a ChemiDoc XRS system (Bio-Rad, Hercules, USA). […]"}, "UUO-challenged kidneys": {"test_system": "UUO-challenged kidneys", "assay": "Unilateral ureteral obstruction (UUO): tubular injury and interstitial fibrosis (histology, immunostaining)", "type": "in vivo, mice", "settings": "UUO; for tubular injury and tubulointerstitial fibrosis: VMO 12.5 mg/kg intraperitoneally or FK506 0.2 mg/kg orally per day; for effect of FK506 on ALK3 expression or reno-protection: VMO added to FK506"}, "[1]": {"test_system": "intrarenal ARNT/ALK3 signaling", "assay": "UUO kidneys: ARNT/ALK3 expression and pSmad1/5/8 (qRT-PCR, immunoblotting, immunostaining)", "type": "in vivo, mice", "settings": "for intrarenal ARNT, ALK3 and nuclear pSmad1/5/8 immunostaining: UUO, VMO 12.5 mg/kg intraperitoneally or FK506 0.2 mg/kg orally per day", "procedure": "Eight to twelve weeks-old C57/6, yGTcre−;Yy1fl/fl and yGTcre+;Yy1fl/fl mice were anesthetized with isoflurane inhalation (2-3%), analgesia was performed by subcutaneous injection of 0.1 mg/kg body weight per day Buprenorphine. The ureter was separated from the surrounding tissues and two ligatures were placed about 5 mm apart in upper two-thirds of the left ureter to obtain reliable obstruction. Mice were sacrificed 3, 7 or 10 days after ureteral obstruction for further analyses, as described before (53, 153-155).\nParaffin-embedded specimens were deparaffinized in xylene and rehydrated in ethanol containing distilled water. Tissue sections were stained using polyclonal antibodies against ALK3 (sc-20736, Santa Cruz Biotechnology, Dallas, USA) and ARNT (3718S, Cell Signaling, Danvers, USA), peroxidase labeling was performed using Vectastain Universal Elite ABC Kit (Vector Laboratories, Burlingame, USA) according to the manufacturer's protocol. AEC Substrate-Chromogen (Dako, Glostrup, Denmark) was applied for peroxidase visualization according to the manufacturer's protocol. Nuclear counterstain was performed by using Mayer's Hematoxylin Solution (Sigma, St. Louis, USA).\nas §1\nFor SYBR-based real-time PCR, cDNA synthesis was performed by using DNase I digestion (Invitrogen, Carlsbad, USA) and SuperScript II Reverse Transcriptase (Invitrogen, Carlsbad, USA) according to the manufacturer's protocol. 1 μL of reverse-transcribed cDNA was added to the reaction mixture containing the primer pair (200 nmol/L each) and diluted 2× Fast SYBR Green Master Mix (Applied Biosystems, Carlsbad, USA) in a final volume of 20 μL for each PCR reaction. The real-time PCR reactions were performed in a 96-well reaction plate using the StepOne Plus Real-Time System (Applied Biosystems, Carlsbad, USA) and were done in triplicates. An initiation step at 95° C. for 20 seconds was followed by 40 cycles at 95° C. for 3 to seconds and 60° C. for 30 seconds, with one cycle of dissociation at 95° C. for 15 seconds, 60° C. for 60 seconds, and 95° C. for 15 seconds. The intercalation of SYBR Green dye and its fluorescent signal is directly proportional to the amount of amplified DNA and was transformed into the cycle threshold (Ct). For normalization, the Ct values of the housekeeping genes Gapdh and Actb were subtracted from the Ct values of the gene of interest to generate the dCt values. The relative expression levels were calculated using the equation 2^−ddCt.\nTissue and cells were homogenized in NP40 lysis buffer (Life technologies, Carlsbad, USA) supplemented with protease inhibitor cocktail (Roche, Basel, Switzerland)."}, "[2]": {"settings": "FK506 0.02-5.0 mg/kg or CsA 10 mg/kg orally per day starting one day prior to UUO"}}}
{"compound": "CN1CCN(C(=O)C2C(C(=O)O)[C@H]3CC[C@@H]2O3)CC1", "note": "(stereo partly drawn) [LB-100]", "values": [{"measurement": "protection by FK506/GPI-1046", "setting": "parenchymal organs", "value": "enhances protection"}, {"measurement": "ARNT/HIF1β homodimer formation", "setting": "ARNT/HIF1β homodimer", "value": "enhanced"}, {"measurement": "endogenous ARNT", "setting": "ARNT/HIF1β homodimer; by protection from degradation", "value": "effectively increases"}, {"measurement": "ARNT homodimer formation (mass spectrometry)", "setting": "ARNT/HIF1β homodimer; in the presence of LB-100", "value": "enhancement"}]}
{"compound": "C=C1[C@@H](O)[C@@H]2O[C@]3(CC[C@H](/C=C/[C@@H](C)[C@@H]4CC(C)=C[C@@]5(O[C@H](C[C@@](C)(O)C(=O)O)CC[C@H]5O)O4)O3)CC[C@H]2O[C@@H]1[C@@H](O)C[C@H](C)[C@H]1O[C@@]2(CCCCO2)CC[C@H]1C", "note": "[Okadaic acid]", "values": [{"measurement": "ARNT/HIF1β homodimer formation", "setting": "ARNT/HIF1β homodimer", "value": "enhanced"}]}
{"compound": "CO[C@H]([C@H](O)CC(=O)[C@@H](C)[C@@H](O)CC[C@@H](C)[C@@H]1O[C@]2(CC[C@@H](C)[C@H](CC[C@H](C)C(C)=O)O2)CC[C@@H]1C)[C@H](OC(=O)C[C@@H](O)C1=C(C)C(=O)OC1=O)C(C)C", "note": "[Tautomycin]", "values": [{"measurement": "ARNT/HIF1β homodimer formation", "setting": "ARNT/HIF1β homodimer", "value": "did not affect"}]}
{"compound": "Arnt-VMO: in vivo-morpholinos targeting translational start site of Arnt (antisense AAGAGCCACTCCGCAGATTAGGCAC; all phosphorodiamidate morpholino (PMO); in vivo-morpholino, delivery moiety not given here, further chemistry not fully specified)", "values": [{"measurement": "intrarenal protein levels of respective transcript", "setting": "FKBP12, YY1, ARNT", "value": "effectively reduced"}]}
{"compound": "Cyclosporine A [CsA]", "values": [{"measurement": "chronic tubular injury", "setting": "UUO-challenged kidneys; [2]", "value": "failed to attenuate"}, {"measurement": "interstitial fibrosis", "setting": "UUO-challenged kidneys; [2]", "value": "failed to attenuate"}, {"measurement": "expression of ALK3", "setting": "[1]; UUO-challenged murine kidneys, treatment starting one day prior", "value": "failed to induce"}]}
{"compound": "Fkbp12-VMO: in vivo-morpholinos targeting translational start site of Fkbp12 (SEQ ID NO: 9) (antisense AGATGGTCTCCACCTGCACTCCCAT; all phosphorodiamidate morpholino (PMO); in vivo-morpholino, delivery moiety not given here, further chemistry not fully specified)", "values": [{"measurement": "intrarenal protein levels of respective transcript", "setting": "FKBP12, YY1, ARNT", "value": "effectively reduced"}, {"measurement": "tubular injury and tubulointerstitial fibrosis", "setting": "UUO-challenged kidneys", "value": "attenuated"}, {"measurement": "effect of FK506 on ALK3 expression or reno-protection", "setting": "UUO-challenged kidneys", "value": "did not further enhance"}, {"measurement": "intrarenal ARNT, ALK3 and nuclear pSmad1/5/8 immunostaining", "setting": "[1]", "value": "equally induced"}]}
{"compound": "Yy1-VMO: in vivo-morpholinos targeting translational start site of Yy1 (SEQ ID NO: 10) (antisense TGTAGAGGGTGTCGCCCGAGGCCAT; all phosphorodiamidate morpholino (PMO); in vivo-morpholino, delivery moiety not given here, further chemistry not fully specified)", "values": [{"measurement": "intrarenal protein levels of respective transcript", "setting": "FKBP12, YY1, ARNT", "value": "effectively reduced"}, {"measurement": "tubular injury and tubulointerstitial fibrosis", "setting": "UUO-challenged kidneys", "value": "attenuated"}, {"measurement": "effect of FK506 on ALK3 expression or reno-protection", "setting": "UUO-challenged kidneys", "value": "did not further enhance"}, {"measurement": "intrarenal ARNT, ALK3 and nuclear pSmad1/5/8 immunostaining", "setting": "[1]", "value": "equally induced"}]}
